Test results from patent publication US20250025500A1, “PHOSPHATASE INHIBITORS AS NK CELLS MODULATORS FOR THE TREATMENT OF CANCER” (Kanyr Pharma Inc., priority 2021, published 2025).

Experiments:
Type in all cases: cell-based, Human
NK-92 cells = assay: Lytic granule protein expression in NK-92 (flow cytometry, Western blot)
Protocol: (§1) Total cell lysate was prepared with modified RIPA buffer (1M Tris-HCl (pH 7.5), 5M NaCl, 0.25% sodium deoxycholate, 10% NP-40 and 10 mM sodium fluoride) supplemented with ethylenediaminetetraacetic acid (EDTA)-free protease inhibitor (Roche™) and 2 mM sodium orthovanadate (Sigma-Aldrich™). Protein levels were quantified by bicinchoninic acid (BCA) assay. Protein lysate was separated by 10% SDS-PAGE and Western analysis was performed using primary antibodies listed in the tables below followed with horseradish peroxidase (HRP, 1:10,000, Jackson ImmunoResearch™) conjugated secondary antibodies.
NK-92 cells pre-treated with L598 (30 μM) or vehicle control were stimulated with K-562 tumor target cells [effector: target (E:T) at 1:1] or PMA/lonomycin (1 μg/mL each) or no-stimulation control with K-562 complete media, respectively. Anti-CD107a or LAMP-1 antibody (1:100, PE/Cy7 conjugated, clone H4A3, from BioLegend®) was added to cells at the start of degranulation assay. Golgi stop (containing Monensin, 1 μM) and Golgi plug (containing Brefeldin A, 4 μg/mL) were added to cells one hour after degranulation assay started and were kept until the end of the 6-hour-degranulation assay. Intracellular staining of GrB (1:40, PE conjugated, clone QA18A28, from BioLegend®) and PRF (1:40, FITC conjugated, clone B-D48, from BioLegend®) were performed with the Fixation/Permeabilization Solution Kit (BD® Biosciences) according to the manufacture's protocol. Cells were stained with fixable viability dye (1:2000) for 20 mins on ice and in dark, and blocked with FcBlock (1:20, diluted in 1× Perm/Wash buffer, Human truStain FcX from BioLegend®) for 5 mins at room temperature and in dark before intracellular staining. Cell gating and percentage of population quantification was based on no-stimulation control. For kinetics of degranulation assay, measurements were taken over three hours at 15 mins, 30 mins, 60 mins, 120 mins and 180 mins, with L598 (30 μM, three days) treated group and vehicle control group under the condition of tumor target cell K-562 stimulation (E: T at 1:1) or no stimulation. Intracellular cytolytic granule contents GrA, GrB and PRF were measured as mentioned previously.

[1] = tested on: NK-92 cells against K-562 cells; assay: NK-92 cytolytic assay against K-562 tumor target cells (flow cytometry); details: three days
Protocol: (§2) Human NK cell line NK-92 was purchased from American Type Culture Collection (ATCC) and cultured in α-MEM Essential Medium (no ribonucleoside and deoxyribonucleoside) supplemented with 0.2 mM Myo-inositol, 0.02 mM Folic Acid, 0.1 mM β-mercaptoethanol, 1% of Non-essential Amino Acids, 1×L-Glutamax, 1% of Penicillin/Streptomycin, 12.5% of heat-inactivated Horse, and 12.5% of heat-inactivated Characterized Fetal Bovine Serum or FBS. The media was supplemented freshly with 200 IU/mL of IL-2 upon cell thawing for one passage and 100 IU/mL of IL-2 for cell expansion. Human tumor cell lines K-562 and Reh were purchased from ATCC and were cultured in RPM11640 Medium supplemented with 1% of Penicillin/Streptomycin and 10% of heat inactivated FBS. HEK293T/17 cells and HCT116 cells were cultured in Dulbecco's Modified Eagle's Medium (DMEM) High Glucose Medium supplemented with 1% of Penicillin/Streptomycin and 10% of FBS. All cell lines were maintained in 5% CO2, 37° C. incubator, except that NK-92 were maintained in 6.5% CO2 incubator at 37° C. All cell lines were maintained below 30 passages and tested regularly for mycoplasma infection using PCR.
NK-92 anti-tumor cytolysis function was assessed by flow cytometry-based analysis. Tumor target cells K-562 and Reh were labelled with cell tracker CFSE ([…]) or CMRA (5 μM) according to manufacturer's protocol at a maximum of one day before cytolysis experiment. On the experiment day, labelled tumor target cells were washed once with PBS and resuspend to desired cell concentration in complete cell media. NK-92 cells were washed and resuspended in complete media without cytokines to desired cell concentration. NK-92 cells and tumor target cells were plated at various effector: target (E:T) ratios with basal cell numbers at 50,000 cells per well in round-bottom 96-well plate and were co-cultured for 3 hours in 5% CO2, 37° C. incubator. After co-culture, cells were washed once with ice-cold PBS and stained with fixable viability dyes: Aqua (Invitrogen™) or UV Blue (Invitrogen™) or eFluor 780 (eBioscience Invitrogen™) at 1:2000 in dark for 20 mins at 4° C. Stained cells were washed twice with ice cold PBS and were fixed with 1% Paraformaldehyde (PFA) for 1 hour or 2% PFA for 30 mins in dark at 4° C. Flow cytometry sample acquisition was performed with BDO LSRFortessa™ with a UV laser at Flow Cytometry Core Facility, McGill University, and data was analyzed with FlowJo™ 10.7.1 and summarized with Prism™ 9 (GraphPad™). Calculation for % of specific cytolysis was followed by the equation: […]

[2] = tested on: NK-92 cells against Reh cells; assay: NK-92 cytolytic assay against NK resistant Reh target cells; details: 30 μM three days, IL-2 100 IU/mL, 3 h assay
Protocol: as §2, with “All cell lines were maintained below 30 passages and tested regularly for mycoplasma infection using PCR.” left out
NK-92 anti-tumor cytolysis function was assessed by flow cytometry-based analysis. […] Flow cytometry sample acquisition was performed with BDO LSRFortessa™ with a UV laser at Flow Cytometry Core Facility, McGill University, and data was analyzed with FlowJo™ 10.7.1 and summarized with Prism™ 9 (GraphPad™). […]

[3] = tested on: JAK/STAT signaling in NK-92 cells; assay: JAK/STAT signaling Western blot and IL-2 stimulation assay in NK-92; details: regular cell culture, inhibitor titration, three days
Protocol: as §1
For cytokine stimulation assay, NK-92 cells were pre-treated with L598 (30 μM) or vehicle control for three days. Before IL-2 stimulation, NK-92 cells were washed once with serum depleted cell media (no IL-2) and were starved for six hours in presence of L598 or vehicle control. After starvation, NK-92 cells were stimulated with IL-2 across a gradient concentration ranging from 0 to 90 IU/mL for 15 mins at 37° C. After incubation, cells were directly lysed with 2× concentrated TNE buffer and then boiled in 1× Laemmli Buffer to prepare cell lysates. Two independent experiments were performed.

For KQ791, the “protein expression of perforin and granzyme B” value (NK-92 cells; gradual increasing concentration, three days) was “upregulated in a dosage dependent manner”, the “granzyme A protein expression” value (NK-92 cells; with or without inhibitor treatment) was “relatively stable” and the “tumor cytolysis by NK-92 against K-562 with inhibitor titration” value ([1]; dosage increased up to 90 μM, various E:T ratios) was “gradual increasing of tumor cytolysis”. For the same molecule, the “NK-92 cytolysis towards NK resistant target cells Reh” value [2] was “had no effect”, the “phosphorylation of STAT2 and STAT6” value [3] was “relatively stable” and the “phosphorylation of STAT1, STAT3, STAT4 and STAT5” value ([3]; dosage dependent) was “increased phosphorylation”.

“TGF-β1: immune regulatory cytokine added to NK-92 culture” was tested, and the “effect of added TGF-β1 on NK-92 cytolysis against K-562” value ([1]; TGF-β 10 ng/mL, IL-2 media) was “significantly reduced”.

B1: IL-4: Th2 cytokine IL-4 added to NK-92 culture (protein, UniProt P05112 25-153, looked up)
Interleukin-4: HKCDITLQEIIKTLNSLTEQKTLCTELTVTDIFAASKNTTEKETFCRAATVLRQFYSHHEKDTRCLGATAQQFHRHKQLIRFLKRLDRNLWGLAGLNSCPVKEANQSTLENFLERLKTIMREKYSKCSS
For B1, the “effect of added IL-4 on NK-92 cytolysis against K-562” value ([1]; IL-4 10 ng/mL, IL-2 media, with or without L598) was “did not reduce nor improve”.
